Source: patent US20250290117A1, “MOLECULAR PHENOTYPIC ANTIMICROBIAL SUSCEPTIBILITY TESTING” (priority 2024, published 2025)

Assays:
M. morganii = assay: Molecular phenotypic antimicrobial susceptibility test, specimen with two detected pathogens incubated together without isolation; type: cell-based, Morganella morganii; conditions: M. morganii in specimen with two detected pathogens (E. coli and M. morganii) incubated together; for Ct of Sensitive Breakpoint: Ct of controls (average) 19.99; for Molecular Antimicrobial Susceptibility Result: at sensitive breakpoint
Description: Detection of Molecular Phenotypic Antimicrobial Susceptibility. Disclosed herein are the methods for the detection of phenotypic antimicrobial susceptibility via molecular methods. The present invention describes how a specimen 100 with a known microbial load is incubated and then exposed to a panel of antimicrobial agents to determine sensitivity (prevention of growth) or resistance (allowance of growth) to the specific antimicrobial agents tested utilizing molecular methods.
Sample Collection. Specimens 100 are collected from patients using sterile collection processes that are employed in routine clinical care. Specimens are transported to the testing facility in boric acid preservative. Specimens 100 are subsequently divided into a first sample 104 and a second sample 108.
Preparation of the Specimens for Testing. The specimens 100 are put through a pathogen identification process using PCR technology (e.g., using the first sample 104). The process for pathogen isolation includes steps of harvesting the pathogen (e.g., via centrifugation), isolating pathogen DNA via a DNA isolation and/or purification kit, and performing PCR on the pathogen DNA via PCR components (e.g., primers, enzymes, buffers) as would be known to the skilled artisan. Simultaneously, an additional aliquot of the same specimen (e.g., the second sample 108) is placed with liquid culture media and incubated for 4-6 hours. This aliquot is used for antimicrobial susceptibility testing if indicated based on the pathogen detection results. After pathogen identification is completed and if more than 10,000 cells/mL of bacteria (e.g., eligible bacteria) are detected in the source specimen, the second sample 108 then enters the antimicrobial susceptibility phase of testing. Specimens 100 with lower pathogen loads could also be utilized in the antibiotic susceptibility phase of testing with or without a longer incubation period.
Preparation of Antimicrobial Susceptibility Testing Plates. Antimicrobial solutions are prepared at known concentrations. The specific antimicrobials and their concentrations are selected based on the pathogen of interest and the described antimicrobial resistance breakpoints for that specimen pathogen and antimicrobial combination. These antimicrobials have been selected based on those commonly utilized by healthcare providers in routine clinical care for the specific type of suspected infection. The number and types of antimicrobials utilized can be customized based on the infection source, pathogen detected, patient-specific factors such as allergies or other health conditions (e.g., chronic kidney disease or concurrent medication use), or healthcare provider preferences such as antimicrobial availability or cost.
The antimicrobial solutions are prepared in liquid culture media (such as Muller Hinton Broth) to achieve the desired antimicrobial concentration and are then stored at −80° C. until use. For a given specimen, each antimicrobial is tested at a single or multiple antimicrobial concentration(s) which is its established breakpoints for sensitivity. The antimicrobial solutions are prepared and plated out for each specific pathogen. This allows ease of use on the day of testing after defrosting the plate 112. Table 1, which illustrates the results of molecular phenotypic antimicrobial susceptibility testing when more than one organism is present in the source specimen, provides an example of an antimicrobial plate 112 prepared for this purpose. Of note, control wells containing only culture media are present on all plates 112. This allows for evaluation of pathogen load when no antimicrobial is present.
Specimen Exposure to Antimicrobial Agents. The 1 mL aliquot of the specimen 100 previously mixed with culture media and incubated is obtained. Using optical density measurements as a guide, the specimen 100 is diluted to 0.5 McFarland. […]

pathogen of the specimen = assay: Molecular phenotypic antimicrobial susceptibility test with direct PCR at various incubation timepoints (Table 7); type: cell-based
Outline: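 Specimens with known microbial load are cultured, diluted to 0.5 McFarland using optical density, then exposed to antimicrobials prepared in liquid culture media (e.g., Muller Hinton Broth) at their established sensitivity breakpoint concentrations. After incubation, samples are lysed with buffer in a thermal cycler and analyzed by direct semi-quantitative PCR, with antimicrobial-free control wells serving as the susceptibility threshold.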

[1] = E. coli isolate 1189, antibiotic incubation time 4 hours
[2] = E. coli isolate 1189, antibiotic incubation time 4 hours, control average Ct […]
[3] = E. coli isolate 1189, antibiotic incubation time 6 hours
[4] = E. coli isolate 1189, antibiotic incubation time 6 hours, control average Ct 16.992
[5] = E. coli isolate 1189, antibiotic incubation time 8 hours
[6] = E. coli isolate 1189, antibiotic incubation time 8 hours, control average Ct […]
[7] = E. coli isolate 1189, antibiotic incubation time 10 hours
[8] = E. coli isolate 1189, antibiotic incubation time 10 hours, control average Ct 15.995
[9] = E. coli isolate 1189, antibiotic incubation time 12 hours
[10] = E. coli isolate 1189, antibiotic incubation time 12 hours, control average Ct 15.495
[11] = E. coli isolate 1189, antibiotic incubation time 14 hours
[12] = E. coli isolate 1189, antibiotic incubation time 14 hours, control average Ct 15.826
[13] = E. coli isolate 1189, antibiotic incubation time 16 hours
[14] = E. coli isolate 1189, antibiotic incubation time 16 hours, control average Ct 14.880

Compound	Ct of Sensitive Breakpoint (M. morganii)	Molecular Antimicrobial Susceptibility Result (M. morganii)	Molecular Antimicrobial Susceptibility Result (pathogen of the specimen; [1])	Ct at Sensitive Breakpoint (pathogen of the specimen; [2])	Molecular Antimicrobial Susceptibility Result (pathogen of the specimen; [3])	Ct at Sensitive Breakpoint (pathogen of the specimen; [4])	Molecular Antimicrobial Susceptibility Result (pathogen of the specimen; [5])	Ct at Sensitive Breakpoint (pathogen of the specimen; [6])	Molecular Antimicrobial Susceptibility Result (pathogen of the specimen; [7])	Ct at Sensitive Breakpoint (pathogen of the specimen; [8])	Molecular Antimicrobial Susceptibility Result (pathogen of the specimen; [9])	Ct at Sensitive Breakpoint (pathogen of the specimen; [10])	Molecular Antimicrobial Susceptibility Result (pathogen of the specimen; [11])	Ct at Sensitive Breakpoint (pathogen of the specimen; [12])	Molecular Antimicrobial Susceptibility Result (pathogen of the specimen; [13])	Ct at Sensitive Breakpoint (pathogen of the specimen; [14])
Gentamicin	30.09	Sensitive (Antimicrobial wells with pathogen load detected below the control wells (typically >2 cycle thresholds later) may be reported as Sensitive)	Sensitive (Antimicrobial wells with pathogen load detected below the control wells (typically >2 cycle thresholds later) may be reported as Sensitive)	24.224	Sensitive (Antimicrobial wells with pathogen load detected below the control wells (typically >2 cycle thresholds later) may be reported as Sensitive)	25.270	Sensitive (Antimicrobial wells with pathogen load detected below the control wells (typically >2 cycle thresholds later) may be reported as Sensitive)	25.454	Sensitive (Antimicrobial wells with pathogen load detected below the control wells (typically >2 cycle thresholds later) may be reported as Sensitive)	25.318	Sensitive (Antimicrobial wells with pathogen load detected below the control wells (typically >2 cycle thresholds later) may be reported as Sensitive)	25.018	Sensitive (Antimicrobial wells with pathogen load detected below the control wells (typically >2 cycle thresholds later) may be reported as Sensitive)	24.069	Sensitive (Antimicrobial wells with pathogen load detected below the control wells (typically >2 cycle thresholds later) may be reported as Sensitive)	24.816
Cc1nnc(SCC2=C(C(=O)O)N3C(=O)[C@@H](NC(=O)Cn4cnnn4)[C@H]3SC2)s1 [Cefazolin]	21.60	Resistant	Resistant	16.209	Resistant	16.328	Resistant	17.305	Resistant	15.756	Resistant	15.126	Resistant	17.599	Resistant	15.199
CC1(C)S[C@@H]2[C@H](NC(=O)[C@H](N)c3ccccc3)C(=O)N2[C@H]1C(=O)O [Ampicillin]	20.73	Resistant	Resistant		Resistant	15.362	Resistant		Resistant		Resistant	15.183	Resistant	15.465	Resistant	15.036
Trimethoprim/Sulfamethoxazole [TMP/SMX]	32.93	Sensitive (Antimicrobial wells with pathogen load detected below the control wells (typically >2 cycle thresholds later) may be reported as Sensitive)	Sensitive (Antimicrobial wells with pathogen load detected below the control wells (typically >2 cycle thresholds later) may be reported as Sensitive)	24.603	Sensitive (Antimicrobial wells with pathogen load detected below the control wells (typically >2 cycle thresholds later) may be reported as Sensitive)	23.984	Sensitive (Antimicrobial wells with pathogen load detected below the control wells (typically >2 cycle thresholds later) may be reported as Sensitive)	24.482	Sensitive (Antimicrobial wells with pathogen load detected below the control wells (typically >2 cycle thresholds later) may be reported as Sensitive)	24.129	Sensitive (Antimicrobial wells with pathogen load detected below the control wells (typically >2 cycle thresholds later) may be reported as Sensitive)	23.878	Sensitive (Antimicrobial wells with pathogen load detected below the control wells (typically >2 cycle thresholds later) may be reported as Sensitive)	24.017	Sensitive (Antimicrobial wells with pathogen load detected below the control wells (typically >2 cycle thresholds later) may be reported as Sensitive)	23.552
O=C(O)c1cn(C2CC2)c2cc(N3CCNCC3)c(F)cc2c1=O [Ciprofloxacin]	34.71	Sensitive (Antimicrobial wells with pathogen load detected below the control wells (typically >2 cycle thresholds later) may be reported as Sensitive)	Sensitive (Antimicrobial wells with pathogen load detected below the control wells (typically >2 cycle thresholds later) may be reported as Sensitive)	27.666	Sensitive (Antimicrobial wells with pathogen load detected below the control wells (typically >2 cycle thresholds later) may be reported as Sensitive)	27.144	Sensitive (Antimicrobial wells with pathogen load detected below the control wells (typically >2 cycle thresholds later) may be reported as Sensitive)	28.104	Sensitive (Antimicrobial wells with pathogen load detected below the control wells (typically >2 cycle thresholds later) may be reported as Sensitive)	27.715	Sensitive (Antimicrobial wells with pathogen load detected below the control wells (typically >2 cycle thresholds later) may be reported as Sensitive)	27.182	Sensitive (Antimicrobial wells with pathogen load detected below the control wells (typically >2 cycle thresholds later) may be reported as Sensitive)	27.128	Sensitive (Antimicrobial wells with pathogen load detected below the control wells (typically >2 cycle thresholds later) may be reported as Sensitive)	28.446
